PMC5578999, “Novel quinolone chalcones targeting colchicine-binding pocket kill multidrug-resistant cancer cells by inhibiting tubulin activity and MRP1 function” (Scientific Reports, 2017)

Legend:
[1] = tested on: MDA-MB-231; test: SRB cell viability and combinational index; assay type: cell-based; settings: Homo sapiens; MDA-MB-231 cells
Experimental: (§1) Dr. Susan Cole (Queen’s Universit y, Kingston, Ontario, Canada). The pacl itaxel-resistant MDA-MB-231TaxR cell line was generated in house b y culturing MDA-MB-231 cells (purchased from ATCC and authen ticated ) in the gradual l y incr easi ng con centr ations of pacl itax el until the concentration reached to 100 nM. Cell line authentication was carried out by Genetica DNA Laboratories (Burlington, NC) using a short tandem repeat (STR) profiling method (March 2015; […]
(§2) Cell viability, com binational i ndex and cell synchronization
(§3) Cell viability and proliferation were ex amined using a s ulforhodamine B (SRB) assa y as described previousl y (Hu et al., 2008). IC 50 values were calculat ed from si gmoidal dose-response cu rves gen erat ed b y at least two indepen dent ex periments , with each quadruplicate samples, using GraphPad Prism v.5.04 software (GraphPad Software, Inc, La J olla, CA). […]
737/ABT-199 w ere us ed at or below IC 50 . The combinational index (CI) w as calculat ed as previousl y described (Chou, 2006). […]
(§4) (Romero and Lee, 2008), and the cells were r eleas ed in to complete medium in the absence (sham) or presence of compound(s). […]

[2] = tested on: HEK293-MRP1; test: SRB cell viability, MRP1-overexpressing cells; assay type: cell-based, human; settings: HEK293-MRP1 vs HEK293
Excerpt: Parental HEK293 and M RP1- overexpressing HEK293- MRP1 isogenic cel ls were kind gifts of Dr. Susan Cole (Queen’s Universit y, Kingston, Ontario, Canada). […]
as §2
(§5) Cell viability and proliferation were ex amined using a s ulforhodamine B (SRB) assa y as […]
(§6) IC 50 values were calculat ed from si gmoidal dose-response cu rves gen erat ed b y at least two indepen dent ex periments , with each quadruplicate samples, using GraphPad Prism v.5.04 software (GraphPad Software, Inc, La J olla, CA). […]
(§7) (sham) or presence of compound(s). […]

[3] = target: T1, MRP1 (Homo sapiens, UniProt P33527); test: Rh123 dye efflux assay, HEK293-MRP1 cells; assay type: cell-based; settings: 22 µmol/L of drug, DMSO control 39.6%
T1 construct: expressed in transfected cells; host or cells: HEK293-MRP1 (gift of Dr. Susan Cole)
T1 sequence (P33527 whole entry): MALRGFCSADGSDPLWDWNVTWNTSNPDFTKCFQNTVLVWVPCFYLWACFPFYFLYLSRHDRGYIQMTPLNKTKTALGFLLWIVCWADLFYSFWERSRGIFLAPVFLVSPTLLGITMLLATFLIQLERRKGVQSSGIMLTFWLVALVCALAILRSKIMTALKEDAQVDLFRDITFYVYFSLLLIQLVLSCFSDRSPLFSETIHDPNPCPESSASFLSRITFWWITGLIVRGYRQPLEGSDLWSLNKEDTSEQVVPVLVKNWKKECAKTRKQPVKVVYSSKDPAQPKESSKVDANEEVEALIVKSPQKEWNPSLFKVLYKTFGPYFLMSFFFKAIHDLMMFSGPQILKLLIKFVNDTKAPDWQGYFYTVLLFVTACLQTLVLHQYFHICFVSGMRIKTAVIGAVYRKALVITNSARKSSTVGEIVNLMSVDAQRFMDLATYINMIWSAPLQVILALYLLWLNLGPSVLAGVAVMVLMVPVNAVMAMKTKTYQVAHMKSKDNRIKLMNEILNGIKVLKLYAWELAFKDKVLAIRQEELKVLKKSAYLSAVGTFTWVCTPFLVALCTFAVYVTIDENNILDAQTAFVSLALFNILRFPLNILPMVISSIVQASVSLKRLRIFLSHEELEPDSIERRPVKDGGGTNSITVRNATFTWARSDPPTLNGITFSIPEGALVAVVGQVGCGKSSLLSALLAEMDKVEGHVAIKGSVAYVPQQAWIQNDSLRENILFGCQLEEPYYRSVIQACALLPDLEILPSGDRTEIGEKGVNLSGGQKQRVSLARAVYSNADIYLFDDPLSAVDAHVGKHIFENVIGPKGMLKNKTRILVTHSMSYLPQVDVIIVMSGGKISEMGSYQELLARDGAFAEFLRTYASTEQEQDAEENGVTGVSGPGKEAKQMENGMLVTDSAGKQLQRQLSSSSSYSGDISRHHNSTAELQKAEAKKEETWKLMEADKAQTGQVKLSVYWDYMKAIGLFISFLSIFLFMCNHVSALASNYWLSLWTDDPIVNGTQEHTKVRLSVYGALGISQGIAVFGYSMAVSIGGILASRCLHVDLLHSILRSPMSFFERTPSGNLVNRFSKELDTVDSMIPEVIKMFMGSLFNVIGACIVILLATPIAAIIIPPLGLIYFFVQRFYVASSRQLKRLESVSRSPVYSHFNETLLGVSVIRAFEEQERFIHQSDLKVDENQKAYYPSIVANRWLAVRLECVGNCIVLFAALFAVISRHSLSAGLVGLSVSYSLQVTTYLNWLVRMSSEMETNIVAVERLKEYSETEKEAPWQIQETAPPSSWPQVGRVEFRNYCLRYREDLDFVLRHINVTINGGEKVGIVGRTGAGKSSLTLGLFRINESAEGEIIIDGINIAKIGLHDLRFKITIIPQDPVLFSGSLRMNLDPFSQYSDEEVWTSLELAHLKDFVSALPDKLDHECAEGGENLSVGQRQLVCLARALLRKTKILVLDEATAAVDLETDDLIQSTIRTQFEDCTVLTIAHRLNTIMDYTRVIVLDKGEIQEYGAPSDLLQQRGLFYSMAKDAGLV
Experimental: Rhodamine123 (Rh123) drug efflux was carried out using a Multidrug-Resistance Direct Dye Efflux Activity Kit (Millipore, Darmstadt, Germany), with some modifications. […] Reading was carried out with a Beckman Coulter FC500 flow cytometer.

[4] = target: T1, MRP1; test: Calcein-AM retention assay, HEK293-MRP1 cells; assay type: cell-based; settings: 22 µmol/L, DMSO control 52%
[5] = tested on: MDA-MB-231 triple-negative metastatic breast cancer cells; test: Antitumor activity in engrafted athymic mice; assay type: in vivo, ATH490 athymic mice
Experimental: The animals were then immediately euthanized by carbon dioxide. […]
Supplementary Table S2. A typical treatment protocol of engrafted mice with CTR alone or in
combination with paclitaxel.
Treatment Dos a ge Frequ enc y Route Notes
Sham control Highest volume E v e r y 3-4 d a ys Intraperitoneal (I.P.) Vehicle onl y
Taxa 10 mg/kgb Once/week Intravenous ( I.V.)
CTR-17 (30) 30 mg/kg E v e r y 3-4 d a ys I. P .
CTR-20 (30) 30 mg/kg E v e r y 3-4 d a ys I. P .
Supplementary Table S 3: Antitumor activity of CTR -17 and CTR -20, alone or in combination
a Tax: paclitaxel. b mg per kg of bod y wei ght. c unit is mm 3. […]

[6] = mouse, in vivo
Experimental: Athymic mice engrafted with tumor cells were used to determine antitumor activity. […] When tumor size reached 5–6 mm in diameter (n = 4–5 per group), mice were randomly assigned into several groups and vehicle-treated or treated with drug(s). […] Animals were monitored for food and water consumption every day, and their body weights and tumor volumes were measured twice per week. Tumor volumes were measured with a digital caliper and were determined by the following formula: ½ length × width^2. Blood samples were collected via cardiac puncture and processed for ALT and AST measurements. The animals were then immediately euthanized by carbon dioxide. Tumors and vital organs (spleen, kidney, liver and lung) were harvested and fixed in 10% buffered formalin at 4 °C overnight before being processed for a paraffin embedding. The paraffin-embedded blocks were then sectioned to 4–5 µm thick. Each section was stained with haematoxylin and eosin (H&E).

[7] = tested on: KB-C-1; test: SRB cell viability, parental cells; assay type: cell-based; settings: Homo sapiens, KBC-1; KB-C-1; Table S1
Experimental: (§8) human epidermoid carcinoma cell line and KB-C2, an isogenic MDR1- overexpressing drug-resistant cell line, were kindl y provided b y Dr. Amit K Tiwari, the Universit y of Toledo, OH. […]
(§9) Cell line authentication was carried out by Genetica DNA
as §2, §5, §6, §7

[8] = tested on: H69AR; test: SRB cell viability, multidrug-resistant cells; assay type: cell-based; settings: Table S1; for Resistance (fold): H69AR vs SW-1271; for IC50: Homo sapiens, H69AR
Experimental: as §9, §2, §5, §6, §7

[9] = tested on: SW-1271; test: SRB cell viability; assay type: cell-based; settings: SW1271, Table S1
Experimental: as §9, §2, §5, §6, §7

[10] = tested on: MDA-MB-231TaxR; test: SRB cell viability, paclitaxel-resistant cells; assay type: cell-based; settings: MDA-MB-231TaxR vs MDA-MB-231
Experimental: as §1, §2, §3, §4

[11] = tested on: KB-C-2; test: SRB cell viability, MDR1-overexpressing cells; assay type: cell-based; settings: Homo sapiens, KB-C2; KB-C-2; Table S1
Experimental: as §8, §9, §2, §5, §6, §7

[12] = tested on: KB-C-2; test: SRB cell viability, MDR1-overexpressing cells; assay type: cell-based, human; settings: for Resistance (fold): KB-C-2 vs KB-C-1, Table S1

IC50 [1] [nM] | IC50 [9] [nM] | IC50 [11] [nM] | Compound | IC50 [7] [nM] | Resistance (fold) [8] [fold] | IC50 [8] [nM] | resistance ratio of KB-C-2 vs KB-C-1 cells [12] [folds] | Resistance (fold) [12] [fold] | further results
11600 ± 1130 |  |  | CC1(C)CCC(CN2CCN(c3ccc(C(=O)NS(=O)(=O)c4ccc(NCC5CCOCC5)c([N+](=O)[O-])c4)c(Oc4cnc5[nH]ccc5c4)c3)CC2)=C(c2ccc(Cl)cc2)C1 [ABT-199] |  |  |  |  |  | 
28500 ± 3990 |  |  | CN(C)CC[C@H](CSc1ccccc1)Nc1ccc(S(=O)(=O)NC(=O)c2ccc(N3CCN(Cc4ccccc4-c4ccc(Cl)cc4)CC3)cc2)cc1[N+](=O)[O-] [ABT-737] |  |  |  |  |  | 
 |  |  | COc1cc2c(c(OC)c1OC)-c1ccc(OC)c(=O)cc1[C@@H](NC(C)=O)CC2 [colchicine] |  |  |  |  |  | resistance of MRP1-overexpressing HEK293 cells [2]: approximately 3.5 fold; Rh123 retention [3]: 77.6%; calcein-AM retained in the cells [4]: 59%
 | 4.51 ± 0.71 | 23.08 ± 0.21 | CC(=O)O[C@H]1C(=O)[C@@]2(C)[C@H]([C@H](OC(=O)c3ccccc3)[C@]3(O)C[C@H](OC(=O)[C@H](O)[C@@H](NC(=O)c4ccccc4)c4ccccc4)C(C)=C1C3(C)C)[C@]1(OC(C)=O)CO[C@@H]1C[C@@H]2O [paclitaxel, reference compound] | 2.01 ± 0.17 | 2.44 | 11 ± 2.6 | 11.48 | 11.48 | tumor volume Day 0 ([5]; Tax 10 mg/kg i.v. once/week, CTR 30 mg/kg i.p. every 3-4 days, combinations Tax 5 + CTR 15 mg/kg once/week): 91.84 mm3; tumor volume Day 6 ([5]; Tax 10 mg/kg i.v. once/week, CTR 30 mg/kg i.p. every 3-4 days, combinations Tax 5 + CTR 15 mg/kg once/week, sham 105.03): 90.11 mm3; tumor volume Day 14 ([5]; same doses, sham 136.66): 94.66 mm3; tumor volume Day 17 ([5]; same doses, sham 162.62): 92.33 mm3; tumor volume Day 20 ([5]; same doses, sham 192.69): 81.66 mm3; tumor volume Day 24 ([5]; same doses, sham 268.08): 95.61 mm3; tumor volume Day 27 ([5]; same doses, sham 426.87): 139.41 mm3; tumor volume Day 30 ([5]; same doses, sham 557.66): 170.36 mm3; mice showing presence of hyaline in kidney [6]: one in four mice; resistance of MDA-MB-231TaxR [10]: 114 times
 | 1.75 ± 0.21 | 9.27 ± 3.22 | CC[C@]1(O)C[C@@H]2CN(CCc3c([nH]c4ccccc34)[C@@](C(=O)OC)(c3cc4c(cc3OC)N(C)[C@H]3[C@@](O)(C(=O)OC)[C@H](OC(C)=O)[C@]5(CC)C=CCN6CC[C@]43[C@@H]65)C2)C1 [vinblastine] | 0.61 ± 0.09 | 5.82 | 10.2 ± 1.97 | 15.20 | 15.20 | 
